The results in this text go back to article PMC7206119, “RIP1 inhibition blocks inflammatory diseases but not tumor growth or metastases” (Cell Death and Differentiation, 2019).

Common to all, as to test: biochemical
What all share (parameters): Thermo Fisher SelectScreen kinase panel: Z'-LYTE and Adapta activity, LanthaScreen binding
In general terms: In TR-FRET formats the signal depends on donor and acceptor labels being close together.

One experiment has as its target TXK (Homo sapiens, UniProt P42681). On the procedure: (§1) 5 88 GNE684 was tested in Thermo Fisher Scientific SelectScreen assay (Madison, WI) 89 against 221 representative kinases at a concentration of 10 µM, which is 476-fold greater than the Ki app 90 for GNE684 against human RIP1 in the RIP1 enzyme 91 assay. The kinase assays were carried out using Z'-LYTE and Adapta activity and 92 LanthaScreen binding assays (Thermo Fisher Scientific, Madison WI) following 93 protocols developed and performed by Thermo Fisher Scientific 94 (https://www.thermofisher.com/us/en/home/products-and-services/services/custom-95 services/screening-and-profiling-services/selectscreen-profiling-service/selectscreen-96 kinase-profiling-service.html). 97 GNE684 was also tested against 468 kinases in the KINOMEscan scanMAX kinase 98 binding assay panel at a concentration of 10 µM following protocols developed and 99 performed by DiscoverX (http://www.discoverx.com/kinase_profiling).

Another experiment concerns the target PAK1 (Homo sapiens, UniProt Q13153). How it is done:
as §1

The next experiment deals with DYRK3 (Homo sapiens, UniProt O43781). How it is done:
as §1

For the next experiment, the target named is BMX (Homo sapiens, UniProt P51813). How it is done:
as §1

In another experiment the target is CLK1 (Homo sapiens, UniProt P49759). How it is done: as §1
In the next experiment the target is ITK (Homo sapiens, UniProt Q08881). How it is done:
as §1

A further experiment concerns the target SYK (Homo sapiens, UniProt P43405). On the procedure: as §1
A further experiment has as its target T1, MYLK3(caMLCK) (Homo sapiens, UniProt Q32MK0).
T1 construct: cardiac MLCK
On the procedure:
as §1

A further experiment deals with T2, Aurora_A (Homo sapiens, UniProt O14965).
T2 construct: gene AURKA
How it is done:
as §1

In a further experiment the target is FLT1 (Homo sapiens, UniProt P17948). On the procedure: as §1
A further experiment has as its target CDK2/cyclinA (Homo sapiens, UniProt P24941). How it is done:
as §1

A further experiment deals with MELK (Homo sapiens, UniProt Q14680). On the procedure: as §1
The target in another experiment is FRK (Homo sapiens, UniProt P42685). How it is done: as §1
In another experiment the target is TEC (Homo sapiens, UniProt P42680). On the procedure:
as §1

Another experiment has as its target T3, MST4 (Homo sapiens, UniProt Q9P289).
T3 construct: gene STK26
On the procedure:
as §1

Another experiment addresses T4, IKK-beta (Homo sapiens, UniProt O14920).
T4 construct: gene IKBKB
On the procedure: as §1

A further experiment deals with T5, PKC_zeta (Homo sapiens, UniProt Q05513).
T5 construct: gene PRKCZ
How it is done: as §1

A further experiment deals with T6, Tpl2 (Homo sapiens, UniProt P41279).
T6 construct: gene MAP3K8
On the procedure:
as §1

A further experiment addresses SRPK1 (Homo sapiens, UniProt Q96SB4). How it is done: as §1
The next experiment addresses ROCK2 (Homo sapiens, UniProt O75116). On the procedure: as §1
In a further experiment the target is CDK1/cyclinB (Homo sapiens, UniProt P06493). How it is done:
as §1

The next experiment concerns the target ERBB2 (Homo sapiens, UniProt P04626). On the procedure:
as §1

A further experiment deals with T7, GSK3_alpha (Homo sapiens, UniProt P49840).
T7 construct: gene GSK3A
How it is done:
as §1

MELK, sequence (Q14680 whole entry): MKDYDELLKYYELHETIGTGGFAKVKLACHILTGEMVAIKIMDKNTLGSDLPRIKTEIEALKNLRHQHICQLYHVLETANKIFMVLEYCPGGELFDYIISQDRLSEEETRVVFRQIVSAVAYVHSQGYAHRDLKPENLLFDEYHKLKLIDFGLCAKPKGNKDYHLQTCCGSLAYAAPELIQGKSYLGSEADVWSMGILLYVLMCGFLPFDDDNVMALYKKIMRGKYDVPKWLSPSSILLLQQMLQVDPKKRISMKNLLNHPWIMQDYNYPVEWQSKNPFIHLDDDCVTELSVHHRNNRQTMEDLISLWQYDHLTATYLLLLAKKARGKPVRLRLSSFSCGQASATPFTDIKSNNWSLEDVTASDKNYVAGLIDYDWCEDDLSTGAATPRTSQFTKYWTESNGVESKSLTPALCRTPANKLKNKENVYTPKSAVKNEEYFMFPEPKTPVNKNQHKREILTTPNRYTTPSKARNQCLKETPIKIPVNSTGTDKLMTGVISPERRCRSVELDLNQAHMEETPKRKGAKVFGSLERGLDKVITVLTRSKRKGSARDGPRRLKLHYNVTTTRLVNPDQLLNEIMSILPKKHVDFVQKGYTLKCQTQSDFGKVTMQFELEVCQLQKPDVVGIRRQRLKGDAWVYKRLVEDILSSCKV
T3 sequence (Q9P289 whole entry): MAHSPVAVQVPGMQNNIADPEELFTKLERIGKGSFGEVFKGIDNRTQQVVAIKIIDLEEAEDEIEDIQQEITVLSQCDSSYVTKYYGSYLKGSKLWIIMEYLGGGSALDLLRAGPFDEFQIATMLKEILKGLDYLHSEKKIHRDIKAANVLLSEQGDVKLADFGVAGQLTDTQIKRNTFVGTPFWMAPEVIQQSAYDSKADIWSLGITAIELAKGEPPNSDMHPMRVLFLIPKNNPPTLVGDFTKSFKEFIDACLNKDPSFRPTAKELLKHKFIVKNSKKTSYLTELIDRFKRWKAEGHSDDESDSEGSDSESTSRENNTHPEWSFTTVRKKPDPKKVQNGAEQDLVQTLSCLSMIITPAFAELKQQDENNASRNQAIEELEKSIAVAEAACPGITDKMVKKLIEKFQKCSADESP
ITK, sequence (Q08881 whole entry): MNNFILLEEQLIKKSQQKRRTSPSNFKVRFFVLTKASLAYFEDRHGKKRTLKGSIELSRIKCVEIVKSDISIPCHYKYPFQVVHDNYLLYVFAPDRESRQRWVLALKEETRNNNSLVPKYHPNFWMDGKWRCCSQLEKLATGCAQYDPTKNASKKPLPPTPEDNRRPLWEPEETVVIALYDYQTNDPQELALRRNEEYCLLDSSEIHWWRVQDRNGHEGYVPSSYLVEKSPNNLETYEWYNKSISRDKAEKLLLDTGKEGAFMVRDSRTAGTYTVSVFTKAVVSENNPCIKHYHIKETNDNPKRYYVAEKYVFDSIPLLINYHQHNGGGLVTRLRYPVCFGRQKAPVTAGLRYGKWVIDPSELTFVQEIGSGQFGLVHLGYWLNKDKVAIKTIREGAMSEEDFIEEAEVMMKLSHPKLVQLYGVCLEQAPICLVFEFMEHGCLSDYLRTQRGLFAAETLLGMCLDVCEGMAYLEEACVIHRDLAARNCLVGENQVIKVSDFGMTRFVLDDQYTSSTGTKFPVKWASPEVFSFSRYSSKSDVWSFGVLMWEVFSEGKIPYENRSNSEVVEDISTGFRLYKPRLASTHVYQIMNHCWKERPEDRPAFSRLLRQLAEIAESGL
CDK1/cyclinB, sequence (P06493 whole entry): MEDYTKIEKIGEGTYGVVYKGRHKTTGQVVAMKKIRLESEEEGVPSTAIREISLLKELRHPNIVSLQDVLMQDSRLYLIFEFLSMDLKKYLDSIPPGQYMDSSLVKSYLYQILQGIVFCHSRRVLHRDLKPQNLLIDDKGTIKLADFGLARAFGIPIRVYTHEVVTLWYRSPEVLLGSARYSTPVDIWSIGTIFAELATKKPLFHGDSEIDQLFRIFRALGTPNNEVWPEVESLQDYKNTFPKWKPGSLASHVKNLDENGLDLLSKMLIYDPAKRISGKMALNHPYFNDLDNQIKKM
CDK1/cyclinB, sequence (P14635 whole entry partner): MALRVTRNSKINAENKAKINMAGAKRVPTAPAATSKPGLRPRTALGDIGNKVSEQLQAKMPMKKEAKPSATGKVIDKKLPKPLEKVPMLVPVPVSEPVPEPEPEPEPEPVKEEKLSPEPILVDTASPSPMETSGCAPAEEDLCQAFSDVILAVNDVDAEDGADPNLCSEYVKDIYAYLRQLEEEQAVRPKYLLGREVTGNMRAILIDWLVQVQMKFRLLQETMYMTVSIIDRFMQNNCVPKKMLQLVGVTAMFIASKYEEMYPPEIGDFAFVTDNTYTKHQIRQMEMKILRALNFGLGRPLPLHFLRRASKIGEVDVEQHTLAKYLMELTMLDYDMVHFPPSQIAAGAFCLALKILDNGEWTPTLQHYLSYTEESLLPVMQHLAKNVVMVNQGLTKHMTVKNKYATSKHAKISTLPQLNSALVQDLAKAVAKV
DYRK3, sequence (O43781 whole entry): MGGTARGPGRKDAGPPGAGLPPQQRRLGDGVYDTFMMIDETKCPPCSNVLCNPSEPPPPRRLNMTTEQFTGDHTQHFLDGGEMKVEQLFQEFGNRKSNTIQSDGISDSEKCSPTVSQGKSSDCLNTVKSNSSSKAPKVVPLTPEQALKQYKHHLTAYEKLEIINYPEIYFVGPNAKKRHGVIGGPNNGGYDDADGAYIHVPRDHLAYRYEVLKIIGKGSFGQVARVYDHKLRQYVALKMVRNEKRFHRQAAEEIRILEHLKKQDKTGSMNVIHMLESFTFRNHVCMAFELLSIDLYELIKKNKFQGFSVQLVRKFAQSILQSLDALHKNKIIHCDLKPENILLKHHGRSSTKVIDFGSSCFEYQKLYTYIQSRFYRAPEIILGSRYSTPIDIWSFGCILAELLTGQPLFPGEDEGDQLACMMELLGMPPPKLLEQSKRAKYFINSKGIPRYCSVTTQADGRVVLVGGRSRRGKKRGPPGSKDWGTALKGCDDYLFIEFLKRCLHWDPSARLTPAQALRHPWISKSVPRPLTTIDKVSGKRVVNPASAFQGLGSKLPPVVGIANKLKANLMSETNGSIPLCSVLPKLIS
T4 sequence (O14920 whole entry): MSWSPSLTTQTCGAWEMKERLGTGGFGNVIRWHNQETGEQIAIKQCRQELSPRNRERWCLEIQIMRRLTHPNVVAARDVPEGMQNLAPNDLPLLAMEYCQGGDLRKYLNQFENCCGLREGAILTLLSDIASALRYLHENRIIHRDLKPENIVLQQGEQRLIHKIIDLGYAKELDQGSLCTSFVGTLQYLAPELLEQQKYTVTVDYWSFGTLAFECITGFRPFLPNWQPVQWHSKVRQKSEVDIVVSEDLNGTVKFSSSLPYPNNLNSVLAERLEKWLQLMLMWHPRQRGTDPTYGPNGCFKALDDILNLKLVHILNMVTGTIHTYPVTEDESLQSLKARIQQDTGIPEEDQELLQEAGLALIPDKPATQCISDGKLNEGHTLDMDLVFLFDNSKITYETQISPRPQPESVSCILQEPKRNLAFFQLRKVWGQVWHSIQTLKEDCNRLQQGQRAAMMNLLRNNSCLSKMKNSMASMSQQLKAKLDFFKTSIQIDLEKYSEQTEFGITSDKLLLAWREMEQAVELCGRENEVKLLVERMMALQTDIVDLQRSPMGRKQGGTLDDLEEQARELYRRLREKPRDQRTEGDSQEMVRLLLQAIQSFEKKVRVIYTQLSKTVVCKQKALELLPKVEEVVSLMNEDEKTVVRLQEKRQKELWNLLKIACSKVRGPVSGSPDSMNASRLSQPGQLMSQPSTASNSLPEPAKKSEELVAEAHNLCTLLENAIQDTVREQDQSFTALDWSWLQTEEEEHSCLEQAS
TXK, sequence (P42681 whole entry): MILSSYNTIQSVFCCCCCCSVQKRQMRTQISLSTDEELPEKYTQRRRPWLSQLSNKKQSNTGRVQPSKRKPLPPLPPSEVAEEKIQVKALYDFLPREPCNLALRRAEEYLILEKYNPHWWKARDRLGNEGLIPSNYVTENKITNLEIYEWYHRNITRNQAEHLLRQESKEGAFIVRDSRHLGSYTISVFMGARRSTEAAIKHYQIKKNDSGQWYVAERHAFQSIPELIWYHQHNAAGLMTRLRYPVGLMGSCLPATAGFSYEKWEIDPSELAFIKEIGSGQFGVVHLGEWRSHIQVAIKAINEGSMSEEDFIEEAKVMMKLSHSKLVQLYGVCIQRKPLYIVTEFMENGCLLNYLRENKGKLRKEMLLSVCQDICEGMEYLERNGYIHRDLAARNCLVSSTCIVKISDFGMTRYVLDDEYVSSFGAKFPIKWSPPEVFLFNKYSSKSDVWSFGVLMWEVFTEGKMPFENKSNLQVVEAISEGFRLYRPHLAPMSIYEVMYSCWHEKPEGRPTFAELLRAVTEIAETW
TEC, sequence (P42680 whole entry): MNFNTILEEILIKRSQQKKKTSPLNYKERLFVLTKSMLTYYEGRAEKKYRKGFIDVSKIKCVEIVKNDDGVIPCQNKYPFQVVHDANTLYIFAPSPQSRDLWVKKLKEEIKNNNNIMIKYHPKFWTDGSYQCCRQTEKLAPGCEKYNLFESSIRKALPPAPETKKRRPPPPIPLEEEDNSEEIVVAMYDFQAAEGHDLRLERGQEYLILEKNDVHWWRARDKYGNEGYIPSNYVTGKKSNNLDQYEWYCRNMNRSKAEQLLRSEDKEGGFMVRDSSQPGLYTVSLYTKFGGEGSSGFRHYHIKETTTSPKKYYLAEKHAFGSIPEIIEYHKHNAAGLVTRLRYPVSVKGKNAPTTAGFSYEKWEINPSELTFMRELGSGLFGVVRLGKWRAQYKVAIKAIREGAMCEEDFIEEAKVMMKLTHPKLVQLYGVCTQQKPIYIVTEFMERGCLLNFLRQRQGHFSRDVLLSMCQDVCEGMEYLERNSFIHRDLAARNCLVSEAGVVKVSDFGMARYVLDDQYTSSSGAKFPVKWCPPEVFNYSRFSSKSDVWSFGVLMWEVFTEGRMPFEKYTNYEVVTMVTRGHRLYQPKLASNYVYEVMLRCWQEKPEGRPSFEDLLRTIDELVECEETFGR

Turning to `COc1cc2c(cn1)N(C)C(=O)[C@@H](NC(=O)c1nc3n(n1)[C@H](c1ccccc1)CC3)CC2` [GNE684, (S)-N-((S)-7-methoxy-1-methyl-2-oxo-2,3,4,5-tetrahydro-1H-pyrido[3,4-b]azepin-3-yl)-5-phenyl-6,7-dihydro-5H-pyrrolo[1,2-b][1,2,4]triazole-2-carboxamide], the inhibition at 10 µM on TXK was 5.5%; at PAK1 it was 2.5%; at DYRK3, 2%; on BMX it was 4.5%; on CLK1 it was -0.5%; on ITK, 5%. The inhibition at 10 µM at SYK was -1.5%; at MYLK3(caMLCK), -11%; on Aurora_A it was 3%; at FLT1, 3.5%; at CDK2/cyclinA, 6.5%; at MELK, 13%. For the same compound, the inhibition at 10 µM is 4.5% at FRK; -1% on TEC; 3.5% on MST4; 8.5% on IKK-beta; -2.5% on PKC_zeta; 7% on Tpl2. The inhibition at 10 µM on SRPK1 was -0.5%; at ROCK2 it was 1.5%; at CDK1/cyclinB, -0.5%; on ERBB2 it was -5.5%; on GSK3_alpha, 5%.

Broadly, the inhibition is the change of the read-out against control, counted positive when it falls.
